Results published in US9744178B2, “Respirable agglomerates of porous carrier particles and micronized drug” (Novartis AG, priority 2013, dated 2017).

Columns and labels:
[1] = Delivered dose uniformity from Concept1 dry powder inhaler; assay type: physicochemical; conditions: each drug in respirable agglomerates Lot 11015A-7-6, size 3 hypromellose capsules, Concept1, 60 L/min, 2 L, on filter, RP-HPLC
Protocol: “Emitted Dose” or “ED” as used herein refers to an indication of the delivery of dry powder from an inhaler device after an actuation or dispersion event from a powder unit. ED is defined as the ratio of the dose delivered by an inhaler device to the nominal or metered dose. The ED is an experimentally determined parameter, and may be determined using an in vitro device set up which mimics patient dosing. It is sometimes also referred to as the Delivered Dose (DD). The ED is determined using a drug specific method such as high pressure liquid chromatography.
The bulk powder was filled into size 3 hypromellose capsules. The capsules were then individually filled into a Concept1 dry powder Inhaler (as described herein). The Concept1 Inhaler is a low resistance, capsule-based dry powder Inhaler. The device was emptied at a flow rate of 60 L/min and an inhaled volume of 2 L onto a filter. The mass of each Individual drug on the filter was quantitated by RP-HPLC. The total mass of powder on the filter was also determined gravimetrically.

[2] = Particle size (x50, x90) of micronized drug crystals; assay type: physicochemical; conditions: micronized drug crystals used in the respirable agglomerates
Protocol: “Mass median diameter” or “MMD” or “×50” as used herein means the median diameter of a plurality of particles, typically in a polydisperse particle population, i.e., consisting of a range of particle sizes. MMD values as reported herein are determined by laser diffraction (Sympatec Helos, Clausthal-Zellerfeld, Germany), unless the context indicates otherwise.
An MMD or an ×50 (particle size distribution wherein 50% of the particles are sized smaller) of the micronized active ingredients should be less than about 3 micron (μm), preferably less than about 2 μm, or 1 μm. In embodiments of the invention, an ×50 is about 0.1-3 μm. An ×90 (particle size distribution wherein 90% of the particles are sized smaller) should be less than 7 μm, preferably less than 5 μm, or 3 μm.

β2-adrenoceptor = β2-adrenoceptor (Homo sapiens, UniProt P07550); conditions: cited from earlier work
Sequence of β2-adrenoceptor (P07550 whole entry, species assumed): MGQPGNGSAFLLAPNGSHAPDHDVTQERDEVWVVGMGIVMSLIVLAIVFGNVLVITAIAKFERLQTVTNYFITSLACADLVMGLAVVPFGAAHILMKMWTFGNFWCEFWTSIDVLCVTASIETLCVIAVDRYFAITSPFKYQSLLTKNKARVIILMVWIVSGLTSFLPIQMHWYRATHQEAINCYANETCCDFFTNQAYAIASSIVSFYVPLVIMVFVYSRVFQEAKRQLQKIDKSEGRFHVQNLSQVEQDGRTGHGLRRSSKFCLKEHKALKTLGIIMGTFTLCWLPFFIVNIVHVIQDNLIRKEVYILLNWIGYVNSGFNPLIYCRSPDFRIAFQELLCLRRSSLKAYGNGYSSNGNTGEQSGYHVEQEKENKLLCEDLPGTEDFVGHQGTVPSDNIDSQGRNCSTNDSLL

[3] = Physical form of indacaterol acetate by X-ray powder diffraction; assay type: physicochemical; conditions: for Physical stability of the salt form in water: suspended in water / aqueous feedstock to be spray-dried, acetate
Protocol: In the process of the present invention, an ordered mixture of micronized indacaterol acetate crystals and small porous particles are created by suspending the particles in a liquid perfluorocarbon, and then removing the liquid in a drying process. The physical form of the indacaterol acetate drug substance can be determined by X-ray powder diffraction (XRPD).
The pattern is dominated by the characteristic phospholipid peak at 20=21°. […] Peaks characteristic of indacaterol free base are not present.

Mean delivered dose (% nominal) [1] | ×50 [2] | ×90 [2] | Physical form after dispersion in PFOB ([3]; suspended in perfluorooctyl bromide, XRPD) | SMILES | Duration of action (β2-adrenoceptor) | Onset of action (β2-adrenoceptor) | Physical stability of the salt form in water [3] | Physical stability of the salt form in water ([3]; listed as Indacaterol acetate)
84.8 % nominal | 1.22 μm | 2.45 μm |  | C[C@@H]1C[C@H]2[C@@H]3CCC4=CC(=O)C=C[C@]4(C)[C@@]3(Cl)[C@@H](O)C[C@]2(C)[C@@]1(OC(=O)c1ccco1)C(=O)CCl [mometasone furoate, (11β,16α)-9,21-dichloro-17-[(2-furanylcarbonyl)oxy]-11-hydroxy-16-methylpregna-1,4-diene-3,20-dione] |  |  |  | 
 |  |  |  | CCc1cc2c(cc1CC)CC(NC[C@H](O)c1ccc(O)c3[nH]c(=O)ccc13)C2 [indacaterol, (R)-5-[2-(5,6-diethyl-indan-2-ylamino)-1-hydroxyethyl]-8-hydroxy-1H-quinolin-2-one] | over 24 hours | about 10 minutes |  | 
83.5 % nominal | 1.63 μm | 3.08 μm | salt form of the drug is maintained | CC(=O)O.CCc1cc2c(cc1CC)CC(NC[C@H](O)c1ccc(O)c3[nH]c(=O)ccc13)C2 [indacaterol acetate, (R)-5-[2-(5,6-diethyl-indan-2-ylamino)-1-hydroxyethyl]-8-hydroxy-1H-quinolin-2-one acetate] |  |  | rapidly disproportionates to form indacaterol free base and acetic acid | rapidly disproportionating to form indacaterol free base and acetic acid

SMILES | Mean delivered dose (% nominal) [1] | ×50 [2] | ×90 [2] | Physical form after dispersion in PFOB ([3]; suspended in perfluorooctyl bromide, XRPD) | Duration of action (β2-adrenoceptor) | Onset of action (β2-adrenoceptor) | Physical stability of the salt form in water [3] | Physical stability of the salt form in water ([3]; listed as Indacaterol acetate)
C[N+]1(C)CCC(OC(=O)C(O)(c2ccccc2)C2CCCC2)C1.[Br-] (centres unmarked) [Glycopyrronium bromide, 3-[(cyclopentyl-hydroxyphenyl-acetyl)oxy]-1,1-dimethylpyrrolidinium bromide] | 82.1 % nominal | 2.96 μm | 6.52 μm |  |  |  |  | 
